Source: patent publication US4002738A, “Treatment of specified neoplasias” (Abbott Laboratories, priority 1975, dated 1977)

What was measured:
[1] = system: tumors induced by 7,12-dimethylbenzanthracene (DMBA); assay: DMBA-induced tumors in female rats, subcutaneous treatment; format: in vivo, rat
Procedure: In a group of 3 female, 50-day old rats, tumors were induced by intragastric feeding of 20 mg of 7,12-dimethylbenzanthracene (DMBA) in 2 ml. of sesame oil. The animals developed tumors within 10-12 weeks. All animals were maintained on normal rations for 100 days following the DMBA administration, at which time treatment with the compound of formula I (R = ethyl; R' = isobutyl) was started at a b.i.d. regimen Monday through Friday with a single dose on Saturday, the compound being subcutaneously administered as a 0.2% (wt/vol.) solution in isotonic saline.
The first animal carrying 4 tumors of volumes of 5.5, 3, 1 and 1 cc. respectively, was given the above regimen with 10 μg per dose.
In the second animal carrying 3 tumors, each dose contained only 5 μg of the drug.
The third animal had developed 5 tumors, measuring 6.5, 3.5, 1.5, 0.5 and 0.5 cc. respectively. After treatment with 2.5 μg. per dose of the test drug, these tumors were reduced to 1.5, 3.0, 0.5, 0.2 and >0.0 cc. in that sequence.

[2] = system: spontaneous growth in the right lateral mammary region (adenocarcinoma of the mammary gland); assay: Spontaneous mammary tumor in a female rat, subcutaneous treatment; format: in vivo
Procedure: A female rat that had developed a spontaneous growth in the right lateral mammary region was given b.i.d. 10 μg. of the compound of formula I (R'= isobutyl; R = ethyl). […] On day 9, a biopsy was performed and the tumor was identified as adenocarcinoma of the mammary gland. Treatment was stopped after 20 days and the animal was observed periodically. Tumor growth reappeared in the same area with rapid growth observed on day 65 (counted from original treatment beginning). […] Treatment with the above regimen was started again. The tumor regressed again and on day 93, its diameter was 1.2 cm. and its depth was 0.4 cm. […] However, the tumor remained dormant until day 147 (54 days following the last treatment), when significant growing resumed.

[3] = day 66, regrowth after treatment was stopped on day 20, before second treatment

CCNC(=O)[C@@H]1CCCN1C(=O)[C@H](CCCNC(=N)N)NC(=O)[C@H](CC(C)C)NC(=O)[C@@H](CC(C)C)NC(=O)[C@H](Cc1ccc(O)cc1)NC(=O)[C@H](CO)NC(=O)[C@H](Cc1c[nH]c2ccccc12)NC(=O)[C@H](Cc1c[nH]cn1)NC(=O)[C@@H]1CCC(=O)N1
tumor volume ([1]; first animal, 4 tumors of 5.5, 3, 1 and 1 cc, 10 μg per dose, after 2 weeks, the other two tumors): immeasurable volumes | tumor volume ([1]; first animal, 4 tumors of 5.5, 3, 1 and 1 cc, 10 μg per dose, after 2 weeks, two of the tumors): 1 cc | effect on tumor ([1]; second animal, 3 tumors, 5 μg per dose, one tumor): seemingly unaffected | tumor volume ([1]; second animal, 5 μg per dose, tumor of 3 cc before treatment): 11/4 | tumor volume ([1]; second animal, 5 μg per dose, tumor of 4 cc before treatment): 2 cc | tumor volume ([1]; third animal, 2.5 μg per dose, first tumor of 0.5 cc before treatment): 0.2 cc | tumor volume ([1]; third animal, 2.5 μg per dose, second tumor of 0.5 cc before treatment): > 0.0 cc | tumor volume ([1]; third animal, 2.5 μg per dose, tumor of 1.5 cc before treatment): 0.5 cc | tumor volume ([1]; third animal, 2.5 μg per dose, tumor of 3.5 cc before treatment): 3.0 cc | tumor volume ([1]; third animal, 2.5 μg per dose, tumor of 6.5 cc before treatment): 1.5 cc | day until which the tumor remained dormant before significant growing resumed ([2]; counted from original treatment beginning, 54 days following the last treatment): 147 days | tumor diameter ([2]; day 5 of treatment, 10 μg b.i.d. subcutaneous, diameter before treatment 3 cm): 2 cm | tumor diameter ([2]; day 9 of treatment, 10 μg b.i.d. subcutaneous, diameter before treatment 3 cm): 0.5 cm | tumor diameter ([2]; day 20 of treatment, 10 μg b.i.d. subcutaneous, diameter before treatment 3 cm): undetectable size | tumor depth [2, 3]: 2 cm | tumor diameter [2, 3]: 4 cm | tumor depth ([2]; day 93, second treatment started day 66 (depth then 2 cm), 10 μg b.i.d. subcutaneous): 0.4 cm | tumor diameter ([2]; day 93, second treatment started day 66 (diameter then 4 cm), 10 μg b.i.d. subcutaneous): 1.2 cm
